According to patent US10933039B2, “Coolant mixtures” (Symrise AG, priority 2016, dated 2021):

Assay: Sensory evaluation of coolant mixtures by a panel of 5 trained testers (cooling effect and flavor profile) in a standard chewy candy preparation
Type: in vivo
Details: panel score (5)=very true to (0)=largely not true; mean values of 5 trained testers; unsweetened, non-aromatized standard chewy candy preparation
Experimental: The cooling effect and flavor profile of various coolant mixtures were evaluated by a panel consisting of 5 trained testers. For this purpose, the mixtures were incorporated into an unsweetened and non-aromatized standard chewy candy preparation. The evaluation was reported according to the notation (5)=very true to (0)=largely not true. Data are mean values.

| SMILES | Cooling effect is strong | Cooling effect occurs rapidly |
| --- | --- | --- |
| CC(C)CC(=O)O [C4, Isovaleric acid] | 3.1 | 2.5 |
| CC(C)C(=O)O [C3, Isobutyric acid] | 3.0 | 2.2 |
| CC(C)CC=O [C2, Isovaleraldehyde] | 3.1 | 2.0 |
| CC(C)C=O [C1, Isobutyraldehyde] | 3.2 | 2.1 |
